Data set [1] deals with T1, human GLP-1 receptor (Homo sapiens, UniProt P43220).
T1 construct: expressed in transfected cells; host or cells: membranes from BHK cells, parent line BHKTS13, clone FCW467-12A
The experiment in a line: GLP-1 receptor binding, competitive 125I-GLP-1 SPA binding assay on isolated membranes. The following applies: low HSA (max. 0.001% final assay concentration).

Data set [2] is described as follows: Pharmacokinetic study in mini pigs after i.v. administration. Format: in vivo. Conditions: female, Göttingen, pig, plasma, iv, 2 nmol/kg; read-out: Minipig iv PK, t½ (converted).
Procedure: The purpose of this study is to determine the protraction in vivo of the GLP-1 derivatives after i.v. administration to mini pigs, i.e. the prolongation of their time in the body and thereby their time of action. This was done in pharmacokinetic (PK) studies, where the terminal half-life of the derivative in question was determined. By terminal half-life is generally meant the period of time it takes to halve a certain plasma concentration, measured after the initial distribution phase.
Female Göttingen mini pigs obtained from Ellegaard Göttingen Minipigs (Dalmose, Denmark) at approximately 5 months of age and weighing approximately 10 kg were used in the studies. The mini pigs were housed in pens with straw as bedding, four to six together in each pen and fed restrictedly once or twice daily with Altromin 9023 mini pig diet (Chr. Petersen A/S, DK-4100 Ringsted). The pigs were used for repeated pharmacokinetic studies with a suitable wash-out period between successive GLP-1 derivative dosings. An acclimatisation period of 1 week was allowed during which time the mini pigs were trained to be fixated on the back for blood sampling and in slings for i.v. dosing. All handling, dosing and blood sampling of the animals was performed by trained and skilled staff.
The GLP-1 derivatives were dissolved in 50 mM sodium phosphate, 70 mM sodium chloride, 0.05% tween 80, pH 7.4 to a concentration of approximately 20 nmol/ml. Intravenous injections (the volume corresponding to usually 2 nmol/kg, for example 0.1 ml/kg) of the compounds were given as intravenous injections via a Venflon inserted in an ear vein, while the animals were placed un-anaesthetised in a sling. The dose volume was 0.1 ml/kg, and blood was sampled at predefined time points for up till 13 days post dosing (samples were taken with a syringe from a jugular vein). Blood samples (for example 0.8 ml) were collected in EDTA buffer (8 mM) and then centrifuged at 4° C. and 2000 G for 10 minutes.
Individual plasma concentration-time profiles were analysed by a non-compartmental model in WinNonlin v. […] 6.2 or 6.3 (Pharsight Inc., Mountain View, Calif., USA), or other relevant software for PK analysis, and the resulting terminal half-lives determined.
The target in data set [3] is T1, human GLP-1 receptor. The experiment in a line: In vitro potency, CRE luciferase reporter gene assay in BHK cells expressing the human GLP-1 receptor.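 Further: firefly luciferase luminescence read after 3 h incubation at 37 °C, compounds tested in an eight-point series from 0.01 pM to 100 nM.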 The format is cell-based. The following applies: average of duplicates. In general terms: A reporter such as luciferase makes a cellular process visible.
Target sequence in this assay (P43220 24-463): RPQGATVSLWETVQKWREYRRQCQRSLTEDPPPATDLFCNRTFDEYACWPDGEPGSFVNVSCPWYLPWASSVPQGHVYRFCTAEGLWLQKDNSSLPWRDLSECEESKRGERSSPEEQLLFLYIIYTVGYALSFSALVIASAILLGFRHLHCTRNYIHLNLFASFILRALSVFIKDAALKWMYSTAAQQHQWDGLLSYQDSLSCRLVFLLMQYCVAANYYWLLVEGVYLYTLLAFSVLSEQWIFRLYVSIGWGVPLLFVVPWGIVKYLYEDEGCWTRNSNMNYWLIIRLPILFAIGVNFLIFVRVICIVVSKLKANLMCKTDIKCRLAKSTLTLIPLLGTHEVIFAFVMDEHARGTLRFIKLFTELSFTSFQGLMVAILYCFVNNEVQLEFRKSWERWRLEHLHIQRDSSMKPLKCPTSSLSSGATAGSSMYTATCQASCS
Setting [4] is: 0% HSA, read-out: EC50/pM (0% HSA).
Setting [5] is: EC50/pM (1% HSA), 1% HSA final assay concentration.

Like-named read-outs stand apart in the source and are kept apart here.

In the case of `CC[C@H](C)[C@H](NC(=O)[C@H](Cc1ccccc1)NC(=O)[C@H](CCC(=O)O)NC(=O)[C@H](CCCNC(=N)N)NC(=O)[C@H](C)NC(=O)[C@H](C)NC(=O)[C@H](CCC(N)=O)NC(=O)[C@H](CCC(=O)O)NC(=O)[C@H](CCC(=O)O)NC(=O)[C@H](CC(C)C)NC(=O)[C@H](Cc1ccc(O)cc1)NC(=O)[C@H](CO)NC(=O)[C@H](CO)NC(=O)[C@@H](NC(=O)[C@H](CC(=O)O)NC(=O)[C@H](CO)NC(=O)[C@@H](NC(=O)[C@H](Cc1ccccc1)NC(=O)[C@@H](NC(=O)CNC(=O)[C@H](CCC(=O)O)NC(=O)C(C)(C)NC(=O)[C@@H](N)Cc1c[nH]cn1)[C@@H](C)O)[C@@H](C)O)C(C)C)C(=O)N[C@@H](C)C(=O)N[C@@H](Cc1c[nH]c2ccccc12)C(=O)N[C@@H](CC(C)C)C(=O)N[C@H](C(=O)N[C@@H](CCCNC(=N)N)C(=O)NCC(=O)N[C@@H](CCCCNC(=O)COCCOCCNC(=O)COCCOCCNC(=O)CC[C@H](NC(=O)CCCCCCCCCCCCC(=O)O)C(=O)O)C(=O)N[C@@H](CCCCNC(=O)COCCOCCNC(=O)COCCOCCNC(=O)CC[C@H](NC(=O)CCCCCCCCCCCCC(=O)O)C(=O)O)C(=O)O)C(C)C` [Example 5, N{Epsilon-36}-[2-[2-[2-[[2-[2-[2-[[(4S)-4-carboxy-4-(13-carboxytridecanoylamino)butanoyl]amino]ethoxy]ethoxy]acetyl]amino]ethoxy]ethoxy]acetyl], N{Epsilon-37}-[2-[2-[2-[[2-[2-[2-[[(4S)-4-carboxy-4-(13-carboxytridecanoylamino)butanoyl]amino]ethoxy]ethoxy]acetyl]amino]ethoxy]ethoxy]acetyl]-[Aib8,Glu22,Arg26,Arg34,Lys36,Lys37]-GLP-1-(7-37)-peptide], the IC50 on human GLP-1 receptor [1] (read-out: IC50/nM (low HSA)) turned out to be 0.2 nM. Also, the half-life in data set [2] is 99 h. Further, the EC50 was determined as 1.1 pM at human GLP-1 receptor [3] (setting [4]) and 22 pM on human GLP-1 receptor [3] (setting [5]).
With `CC[C@H](C)[C@H](NC(=O)[C@H](Cc1ccccc1)NC(=O)[C@H](CCC(=O)O)NC(=O)[C@H](CCCNC(=N)N)NC(=O)[C@H](C)NC(=O)[C@H](C)NC(=O)[C@H](CCC(N)=O)NC(=O)[C@H](CCC(=O)O)NC(=O)[C@H](CCC(=O)O)NC(=O)[C@H](CC(C)C)NC(=O)[C@H](Cc1ccc(O)cc1)NC(=O)[C@H](CO)NC(=O)[C@H](CO)NC(=O)[C@@H](NC(=O)[C@H](CC(=O)O)NC(=O)[C@H](CO)NC(=O)[C@@H](NC(=O)[C@H](Cc1ccccc1)NC(=O)[C@@H](NC(=O)CNC(=O)[C@H](CCC(=O)O)NC(=O)C(C)(C)NC(=O)[C@@H](N)Cc1c[nH]cn1)[C@@H](C)O)[C@@H](C)O)C(C)C)C(=O)N[C@@H](C)C(=O)N[C@@H](Cc1c[nH]c2ccccc12)C(=O)N[C@@H](CC(C)C)C(=O)N[C@H](C(=O)N[C@@H](CCCNC(=N)N)C(=O)NCC(=O)N[C@@H](CCCCNC(=O)COCCOCCNC(=O)CC[C@H](NC(=O)CC[C@H](NC(=O)CCCCCCCCCCCCC(=O)O)C(=O)O)C(=O)O)C(=O)N[C@@H](CCCCNC(=O)COCCOCCNC(=O)CC[C@H](NC(=O)CC[C@H](NC(=O)CCCCCCCCCCCCC(=O)O)C(=O)O)C(=O)O)C(=O)O)C(C)C` [Example 13, N{Epsilon-36}-[2-[2-[2-[[(4S)-4-carboxy-4-[[(4S)-4-carboxy-4-(13-carboxytridecanoylamino)butanoyl]amino]butanoyl]amino]ethoxy]ethoxy]acetyl], N{Epsilon-37}-[2-[2-[2-[[(4S)-4-carboxy-4-[[(4S)-4-carboxy-4-(13-carboxytridecanoylamino)butanoyl]amino]butanoyl]amino]ethoxy]ethoxy]acetyl]-[Aib8,Glu22,Arg26,Arg34,Lys36,Lys37]-GLP-1-(7-37)-peptide], the IC50 on human GLP-1 receptor [1] (read-out: IC50/nM (low HSA)) is 0.47 nM. In addition, in data set [2], the half-life is 98 h. For the same molecule, the EC50 worked out at 1.3 pM on human GLP-1 receptor [3] (setting [4]) and 18 pM on human GLP-1 receptor [3] (setting [5]).
Taken in the same sequence, the figures for `CC[C@H](C)[C@H](NC(=O)[C@H](Cc1ccccc1)NC(=O)[C@H](CCC(=O)O)NC(=O)[C@H](CCCNC(=N)N)NC(=O)[C@H](C)NC(=O)[C@H](C)NC(=O)[C@H](CCC(N)=O)NC(=O)[C@H](CCC(=O)O)NC(=O)[C@H](CCC(=O)O)NC(=O)[C@H](CC(C)C)NC(=O)[C@H](Cc1ccc(O)cc1)NC(=O)[C@H](CO)NC(=O)[C@H](CO)NC(=O)[C@@H](NC(=O)[C@H](CC(=O)O)NC(=O)[C@H](CO)NC(=O)[C@@H](NC(=O)[C@H](Cc1ccccc1)NC(=O)[C@@H](NC(=O)CNC(=O)[C@H](CCC(=O)O)NC(=O)C(C)(C)NC(=O)[C@@H](N)Cc1c[nH]cn1)[C@@H](C)O)[C@@H](C)O)C(C)C)C(=O)N[C@@H](C)C(=O)N[C@@H](Cc1c[nH]c2ccccc12)C(=O)N[C@@H](CC(C)C)C(=O)N[C@H](C(=O)N[C@@H](CCCNC(=N)N)C(=O)NCC(=O)N[C@@H](CCCCNC(=O)COCCOCCNC(=O)COCCOCCNC(=O)COCCOCCNC(=O)CC[C@H](NC(=O)CCCCCCCCCCCCC(=O)O)C(=O)O)C(=O)N[C@@H](CCCCNC(=O)COCCOCCNC(=O)COCCOCCNC(=O)COCCOCCNC(=O)CC[C@H](NC(=O)CCCCCCCCCCCCC(=O)O)C(=O)O)C(=O)O)C(C)C` [Example 12] were 0.2 nM, 80 h, 1.2 pM and 10 pM.
In the case of `CC[C@H](C)[C@H](NC(=O)[C@H](Cc1ccccc1)NC(=O)[C@H](CCC(=O)O)NC(=O)[C@H](CCCNC(=N)N)NC(=O)[C@H](C)NC(=O)[C@H](C)NC(=O)[C@H](CCC(N)=O)NC(=O)[C@H](CCC(=O)O)NC(=O)[C@H](CCC(=O)O)NC(=O)[C@H](CC(C)C)NC(=O)[C@H](Cc1ccc(O)cc1)NC(=O)[C@H](CO)NC(=O)[C@H](CO)NC(=O)[C@@H](NC(=O)[C@H](CC(=O)O)NC(=O)[C@H](CO)NC(=O)[C@@H](NC(=O)[C@H](Cc1ccccc1)NC(=O)[C@@H](NC(=O)CNC(=O)[C@H](CCC(=O)O)NC(=O)C(C)(C)NC(=O)[C@@H](N)Cc1c[nH]cn1)[C@@H](C)O)[C@@H](C)O)C(C)C)C(=O)N[C@@H](C)C(=O)N[C@@H](Cc1c[nH]c2ccccc12)C(=O)N[C@@H](CC(C)C)C(=O)N[C@H](C(=O)N[C@@H](CCCNC(=N)N)C(=O)NCC(=O)N[C@@H](CCCCNC(=O)COCCOCCNC(=O)COCCOCCNC(=O)CC[C@H](NC(=O)CCCCCCCCCCCOc1ccc(C(=O)O)cc1)C(=O)O)C(=O)N[C@@H](CCCCNC(=O)COCCOCCNC(=O)COCCOCCNC(=O)CC[C@H](NC(=O)CCCCCCCCCCCOc1ccc(C(=O)O)cc1)C(=O)O)C(=O)O)C(C)C` [Example 26, N{Epsilon-36}-[2-[2-[2-[[2-[2-[2-[[(4S)-4-carboxy-4-[12-(4-carboxyphenoxy)dodecanoylamino]butanoyl]amino]ethoxy]ethoxy]acetyl]amino]ethoxy]ethoxy]acetyl], N{Epsilon-37}-[2-[2-[2-[[2-[2-[2-[[(4S)-4-carboxy-4-[12-(4-carboxyphenoxy)dodecanoylamino]butanoyl]amino]ethoxy]ethoxy]acetyl]amino]ethoxy]ethoxy]acetyl]-[Aib8,Glu22,Arg26,Arg34,Lys36,Lys37]-GLP-1-(7-37)-peptide], the IC50 at human GLP-1 receptor [1] (IC50/nM (low HSA)) is 0.29 nM. Besides, the EC50 at human GLP-1 receptor [3] (EC50/pM (0% HSA), 0% HSA) came to 1.5 pM; at human GLP-1 receptor [3] (setting [5]) it was 124 pM.
Molecule `CC[C@H](C)[C@H](NC(=O)[C@H](Cc1ccccc1)NC(=O)[C@H](CCC(=O)O)NC(=O)[C@H](CCCNC(=N)N)NC(=O)[C@H](C)NC(=O)[C@H](C)NC(=O)[C@H](CCC(N)=O)NC(=O)[C@H](CCC(=O)O)NC(=O)[C@H](CCC(=O)O)NC(=O)[C@H](CC(C)C)NC(=O)[C@H](Cc1ccc(O)cc1)NC(=O)[C@H](CO)NC(=O)[C@H](CO)NC(=O)[C@@H](NC(=O)[C@H](CC(=O)O)NC(=O)[C@H](CO)NC(=O)[C@@H](NC(=O)[C@H](Cc1ccccc1)NC(=O)[C@@H](NC(=O)CNC(=O)[C@H](CCC(=O)O)NC(=O)C(C)(C)NC(=O)[C@@H](N)Cc1c[nH]cn1)[C@@H](C)O)[C@@H](C)O)C(C)C)C(=O)N[C@@H](C)C(=O)N[C@@H](Cc1c[nH]c2ccccc12)C(=O)N[C@@H](CC(C)C)C(=O)N[C@H](C(=O)N[C@@H](CCCNC(=N)N)C(=O)NCC(=O)N[C@@H](CCCCNC(=O)COCCOCCNC(=O)COCCOCCNC(=O)CC[C@H](NC(=O)CCCCCCCCCOc1ccc(C(=O)O)cc1)C(=O)O)C(=O)N[C@@H](CCCCNC(=O)COCCOCCNC(=O)COCCOCCNC(=O)CC[C@H](NC(=O)CCCCCCCCCOc1ccc(C(=O)O)cc1)C(=O)O)C(=O)O)C(C)C` [Example 3, N{Epsilon-36}-[2-[2-[2-[[2-[2-[2-[[(4S)-4-carboxy-4-[10-(4-carboxyphenoxy)decanoylamino]butanoyl]amino]ethoxy]ethoxy]acetyl]amino]ethoxy]ethoxy]acetyl], N{Epsilon-37}-[2-[2-[2-[[2-[2-[2-[[(4S)-4-carboxy-4-[10-(4-carboxyphenoxy)decanoylamino]butanoyl]amino]ethoxy]ethoxy]acetyl]amino]ethoxy]ethoxy]acetyl]-[Aib8,Glu22,Arg26,Arg34,Lys36,Lys37]-GLP-1-(7-37)-peptide] came in with an IC50 at human GLP-1 receptor [1] (IC50/nM (low HSA)) of 0.19 nM. The half-life in data set [2] is 71 h. Moreover, the EC50 on human GLP-1 receptor [3] (EC50/pM (0% HSA), 0% HSA) worked out at 1.2 pM; at human GLP-1 receptor [3] (setting [5]), 28 pM.

Source of the values: patent US10689429B2, “Double-acylated GLP-1 compounds” (Novo Nordisk A/S, priority 2014, dated 2020).
